pEC50, pIC50: −log10 of the molar value.
What was measured:
D(3) dopamine receptor [1] = molecular target: T1, D(3) dopamine receptor (Homo sapiens, UniProt P35462); assay: biochemical
D(2) dopamine receptor [2] = molecular target: T2, D(2) dopamine receptor (Homo sapiens, UniProt P14416)
D(2) dopamine receptor [3] = molecular target: T2, D(2) dopamine receptor; assay: Antagonist activity at human D2R expressed in CHOK1 cells assessed as inhibition of dopamine-induced beta-arrestin recruitment measured after 120 mins by beta-galactosidase based PathHunter assay relative to sulpiride; format: cell-based; details: 2 h, read-out: Imax
D(3) dopamine receptor [4] = molecular target: T1, D(3) dopamine receptor; assay: Agonist activity at human D3R expressed in CHOK1 cells assessed as induction of beta-arrestin recruitment measured after 90 mins by beta-galactosidase based PathHunter assay; format: cell-based; details: for pEC50: read-out: EC50
D(2) dopamine receptor [5] = molecular target: T2, D(2) dopamine receptor; assay: Agonist activity at human D2R expressed in CHOK1 cells assessed as induction of beta-arrestin recruitment measured after 90 mins by beta-galactosidase based PathHunter assay; format: cell-based; details: for pEC50: read-out: EC50
[6] = molecular target: 5-hydroxytryptamine receptor 2B (Homo sapiens, UniProt P41595); assay: Antagonist activity at recombinant human 5-HT2B receptor expressed in CHOK1 cells assessed as inhibition of serotonin-induced increase in inositol1-phosphate accumulation measured after 30 mins by HTRF assay; format: functional, cell-based
D(2) dopamine receptor [7] = molecular target: T2, D(2) dopamine receptor; assay: Antagonist activity at human D2R expressed in CHOK1 cells assessed as inhibition of dopamine-induced beta-arrestin recruitment measured after 120 mins by beta-galactosidase based PathHunter assay; format: cell-based; details: for pIC50: read-out: IC50

T2 sequence (P14416 whole entry): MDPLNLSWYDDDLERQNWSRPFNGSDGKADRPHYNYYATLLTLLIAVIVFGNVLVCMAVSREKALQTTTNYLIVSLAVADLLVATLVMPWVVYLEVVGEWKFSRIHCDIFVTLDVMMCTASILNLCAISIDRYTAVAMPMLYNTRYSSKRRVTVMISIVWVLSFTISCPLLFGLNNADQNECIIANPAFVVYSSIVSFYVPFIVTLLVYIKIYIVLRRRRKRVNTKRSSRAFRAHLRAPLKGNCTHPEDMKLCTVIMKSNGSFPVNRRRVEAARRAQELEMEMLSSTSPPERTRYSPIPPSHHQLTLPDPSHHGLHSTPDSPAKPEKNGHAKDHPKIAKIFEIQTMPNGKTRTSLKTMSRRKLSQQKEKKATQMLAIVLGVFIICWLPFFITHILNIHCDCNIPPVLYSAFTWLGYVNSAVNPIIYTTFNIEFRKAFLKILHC
T1 sequence (P35462 whole entry): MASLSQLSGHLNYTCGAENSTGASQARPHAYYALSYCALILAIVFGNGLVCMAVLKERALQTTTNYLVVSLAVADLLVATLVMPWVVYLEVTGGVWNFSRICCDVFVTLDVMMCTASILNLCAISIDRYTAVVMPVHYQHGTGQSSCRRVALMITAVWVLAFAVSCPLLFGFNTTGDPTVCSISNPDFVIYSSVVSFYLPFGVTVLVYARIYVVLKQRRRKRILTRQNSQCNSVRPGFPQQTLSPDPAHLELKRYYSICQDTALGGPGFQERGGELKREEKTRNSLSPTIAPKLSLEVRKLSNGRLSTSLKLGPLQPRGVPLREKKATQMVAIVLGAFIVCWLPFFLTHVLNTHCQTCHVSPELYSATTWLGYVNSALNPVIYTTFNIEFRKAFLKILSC
Chain of 5-hydroxytryptamine receptor 2B (P41595 whole entry): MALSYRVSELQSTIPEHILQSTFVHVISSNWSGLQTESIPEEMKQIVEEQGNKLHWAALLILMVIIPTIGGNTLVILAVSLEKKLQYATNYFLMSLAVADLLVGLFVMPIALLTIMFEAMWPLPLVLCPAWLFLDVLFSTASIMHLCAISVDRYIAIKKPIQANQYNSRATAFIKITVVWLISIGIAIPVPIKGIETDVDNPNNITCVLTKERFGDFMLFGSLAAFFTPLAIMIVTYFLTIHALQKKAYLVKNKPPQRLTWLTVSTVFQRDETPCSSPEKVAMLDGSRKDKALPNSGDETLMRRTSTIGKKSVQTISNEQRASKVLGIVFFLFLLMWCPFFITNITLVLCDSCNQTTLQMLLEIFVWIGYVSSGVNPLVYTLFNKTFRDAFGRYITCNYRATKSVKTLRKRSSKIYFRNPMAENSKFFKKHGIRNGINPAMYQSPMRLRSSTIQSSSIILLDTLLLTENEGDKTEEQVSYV

| SMILES | Emax (D(2) dopamine receptor [3]) [%] | pEC50 (D(3) dopamine receptor [4]) | EC50 (D(2) dopamine receptor [5]) | pIC50 (D(2) dopamine receptor [7]) | also measured |
| --- | --- | --- | --- | --- | --- |
| Cn1ccc2cc3c(cc21)CCN3C(=O)Nc1cccnc1 | – | – | – | – | pEC50 [6]: 7.89 |
| CCOc1ccc(OCCN2CCN(C(=O)c3cc4ccccc4[nH]3)CC2)cc1 | – | < 4.00 | Not Active | < 4.00 | – |
| Cc1ccc(OCCN2CCN(C(=O)c3cc4ccccc4[nH]3)CC2)cc1Cl | – | 6.00 | Not Active | – | IC50 (D(2) dopamine receptor [7]): Not Active |
| COc1ccc(OCCN2CCN(C(=O)c3cc4ccccc4[nH]3)CC2)c(Cl)c1 | – | 7.39 | Not Active | < 5.00 | – |
| COc1ccc(C(=O)N2CCN(CCOc3ccc4c(c3)OCO4)CC2)cc1 | 87 | 6.51 | Not Active | < 5.00 | – |
| COc1ccc(OCCN2CCN(C(=O)c3ccc(Cl)cc3)CC2)cc1 | 107 | – | Not Active | 5.05 | EC50 (D(3) dopamine receptor [4]): Not Active |
| COc1ccc(OCCN2CCN(C(=O)c3cc4ccccc4n3C)CC2)cc1 | 105 | 6.51 | Not Active | 5.02 | – |
| O=C(c1cc2ccccc2[nH]1)N1CCN(CCOc2cccnc2)CC1 | – | 8.15 | – | – | IC50 (D(2) dopamine receptor [7]): Not Active; pEC50 (D(2) dopamine receptor [5]): 6.24 |
| O=C(c1cc2ccccc2[nH]1)N1CCN(CCOc2cncc(Cl)c2)CC1 | – | 8.30 | – | – | IC50 (D(2) dopamine receptor [7]): Not Active; pEC50 (D(2) dopamine receptor [5]): 6.10 |
| O=C(c1cc2ccccc2[nH]1)N1CCN(CCOc2ccc(Cl)cc2)CC1 | – | 6.94 | Not Active | < 4.30 | – |
| COc1ccc(OCCN2CCN(C(=O)c3cc4ccccc4o3)CC2)cc1 | 111 | – | Not Active | 5.11 | – |
| COc1ccc(OC(C)CN2CCN(C(=O)c3ccc(OC)cc3)CC2)cc1 (stereo not given) | 89 | – | Not Active | 4.74 | – |

Further lines, with some results ahead:

| Emax (D(2) dopamine receptor [3]) [%] | pEC50 (D(3) dopamine receptor [4]) | EC50 (D(2) dopamine receptor [5]) | pIC50 (D(2) dopamine receptor [7]) | SMILES | also measured |
| --- | --- | --- | --- | --- | --- |
| 88 | 6.15 | Not Active | – | COc1ccc(OCCN2CCN(C(=O)c3ccc(OC)cc3)CC2)cc1 | pIC50 (D(3) dopamine receptor [1]): 4.00 to 5.00; pIC50 (D(2) dopamine receptor [2]): < 4.00 |
| 101 | – | Not Active | < 5.00 | COc1ccc(C(=O)N2CCN(CCOc3ccc(Cl)cc3)CC2)cc1 | – |
| 106 | 6.28 | Not Active | 5.22 | CCc1ccc(C(=O)N2CCN(CCOc3ccc(OC)cc3)CC2)cc1 | – |
| 72 | 6.90 | – | 5.01 | O=C(c1cc2ccccc2[nH]1)N1CCN(CCOc2ccc(F)cc2)CC1 | pEC50 (D(2) dopamine receptor [5]): < 4.30 |
| – | 6.82 | – | < 4.00 | Cc1ccc(OCCN2CCN(C(=O)c3cc4ccccc4[nH]3)CC2)cc1 | pEC50 (D(2) dopamine receptor [5]): < 4.30 |
| – | 5.42 | – | < 4.00 | O=C(c1cc2ccccc2[nH]1)N1CCN(CCOc2ccc(OC(F)(F)F)cc2)CC1 | pEC50 (D(2) dopamine receptor [5]): < 4.00 |
| – | 6.15 | Not Active | < 4.30 | COc1ccc(OCCN2CCN(C(=O)c3cc4ccccc4[nH]3)CC2)cc1OC | – |
| 88 | 6.21 | Not Active | 4.89 | Cc1ccc(OCCN2CCN(C(=O)c3cc4ccccc4[nH]3)CC2)cc1C | – |
| – | 5.46 | Not Active | < 4.00 | O=C(c1cc2ccccc2[nH]1)N1CCN(CCOc2ccccn2)CC1 | – |
| 37 | 8.04 | – | 6.27 | O=C(c1cc2ccccc2[nH]1)N1CCN(CCOc2ccccc2)CC1 | pEC50 (D(2) dopamine receptor [5]): 5.74 |
| – | 6.33 | Not Active | < 4.00 | O=C(c1cc2ccccc2[nH]1)N1CCN(CCOc2ccncc2)CC1 | – |
| 30 | 6.55 | – | 5.13 | COc1cccc(OCCN2CCN(C(=O)c3cc4cnccc4[nH]3)CC2)c1 | pEC50 (D(2) dopamine receptor [5]): 6.08 |

From ChEMBL document CHEMBL4402608 (J Med Chem, 2020)
